# The kinase profiling compilation of Christmann-Franck et al. (2016)
# Tests used:
# Assay in all cases: KINOMEscan competition binding
# Conditions in all cases: compound 10.0 µM
# [1] = target: ABL2 (human) (UniProt P42684)
# [2] = target: ACVR1B (human) (UniProt P36896)
# [3] = target: ACVR2A (human) (UniProt P27037)
# [4] = target: BTK (human) (UniProt Q06187)
# [5] = target: CAMKK1 (human) (UniProt Q8N5S9)
# [6] = target: CDK19 (human) (UniProt Q9BWU1)
# [7] = target: CDK7 (human) (UniProt P50613)
# [8] = target: CHUK (human) (UniProt O15111)
# CHUK (human), sequence (O15111 whole entry, looked up): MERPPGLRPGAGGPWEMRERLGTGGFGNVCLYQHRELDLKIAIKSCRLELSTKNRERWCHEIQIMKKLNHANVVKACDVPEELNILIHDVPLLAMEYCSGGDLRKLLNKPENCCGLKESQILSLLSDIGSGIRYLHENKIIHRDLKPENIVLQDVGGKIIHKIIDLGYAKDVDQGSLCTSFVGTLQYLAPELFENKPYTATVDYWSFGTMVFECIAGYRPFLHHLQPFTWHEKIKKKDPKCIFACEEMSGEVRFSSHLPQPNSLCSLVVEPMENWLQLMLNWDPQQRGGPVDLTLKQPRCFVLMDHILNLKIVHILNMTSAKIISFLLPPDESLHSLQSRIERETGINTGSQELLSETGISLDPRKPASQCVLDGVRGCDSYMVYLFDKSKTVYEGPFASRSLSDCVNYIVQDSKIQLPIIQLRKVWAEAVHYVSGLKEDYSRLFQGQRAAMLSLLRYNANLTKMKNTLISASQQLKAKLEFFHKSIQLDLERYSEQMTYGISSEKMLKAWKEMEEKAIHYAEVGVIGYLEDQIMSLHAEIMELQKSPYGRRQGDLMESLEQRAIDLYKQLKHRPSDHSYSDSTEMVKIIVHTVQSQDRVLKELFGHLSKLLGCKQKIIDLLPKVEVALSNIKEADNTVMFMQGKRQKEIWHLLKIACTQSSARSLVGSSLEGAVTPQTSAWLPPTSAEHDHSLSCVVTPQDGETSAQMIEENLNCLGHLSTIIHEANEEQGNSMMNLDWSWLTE
# [9] = target: CLK2 (human) (UniProt P49760)
# [10] = target: DYRK2 (human) (UniProt Q92630)
# [11] = target: EPHA7 (human) (UniProt Q15375)
# [12] = target: EPHA8 (human) (UniProt P29322)
# [13] = target: EPHB1 (human) (UniProt P54762)
# [14] = target: EPHB3 (human) (UniProt P54753)
# [15] = target: FGFR2 (human) (UniProt P21802)
# [16] = test system: FLT3 (human), P36888 [ITD]
# [17] = target: GAK (human) (UniProt O14976)
# [18] = target: HUNK (human) (UniProt P57058)
# [19] = target: JAK1 JH2 pseudokinase (human) (UniProt P23458)
# [20] = target: JAK2 JH1 catalytic (human) (UniProt O60674)
# [21] = test system: KIT (human), P10721 [V559D/V654A]
# [22] = target: LIMK2 (human) (UniProt P53671)
# [23] = target: MAK (human) (UniProt P20794)
# [24] = target: MAP3K13 (human) (UniProt O43283)
# [25] = target: MAP3K5 (human) (UniProt Q99683)
# [26] = target: MAPK8 (human) (UniProt P45983)
# [27] = target: MARK1 (human) (UniProt Q9P0L2)
# [28] = target: MARK2 (human) (UniProt Q7KZI7)
# [29] = target: MATK (human) (UniProt P42679)
# [30] = target: MELK (human) (UniProt Q14680)
# MELK (human), sequence (Q14680 whole entry, looked up): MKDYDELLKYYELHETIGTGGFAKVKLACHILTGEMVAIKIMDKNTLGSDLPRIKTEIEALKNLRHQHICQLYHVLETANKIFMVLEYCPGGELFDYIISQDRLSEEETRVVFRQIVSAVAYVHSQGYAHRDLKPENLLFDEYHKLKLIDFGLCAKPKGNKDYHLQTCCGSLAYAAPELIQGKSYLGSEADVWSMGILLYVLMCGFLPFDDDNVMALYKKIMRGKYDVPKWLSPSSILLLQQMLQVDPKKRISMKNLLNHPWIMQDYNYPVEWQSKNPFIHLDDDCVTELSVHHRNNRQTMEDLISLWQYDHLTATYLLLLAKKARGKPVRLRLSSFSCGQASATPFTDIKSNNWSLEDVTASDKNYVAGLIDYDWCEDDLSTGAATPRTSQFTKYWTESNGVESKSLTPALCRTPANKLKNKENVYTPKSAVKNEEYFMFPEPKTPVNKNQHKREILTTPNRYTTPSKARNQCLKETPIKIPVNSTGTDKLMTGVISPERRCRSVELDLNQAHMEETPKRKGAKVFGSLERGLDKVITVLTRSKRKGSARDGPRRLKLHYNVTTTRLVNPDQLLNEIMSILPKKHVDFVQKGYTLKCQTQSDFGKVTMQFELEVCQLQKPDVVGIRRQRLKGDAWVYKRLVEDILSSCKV
# [31] = target: MINK1 (human) (UniProt Q8N4C8)
# [32] = target: NEK2 (human) (UniProt P51955)
# NEK2 (human), sequence (P51955 whole entry, looked up): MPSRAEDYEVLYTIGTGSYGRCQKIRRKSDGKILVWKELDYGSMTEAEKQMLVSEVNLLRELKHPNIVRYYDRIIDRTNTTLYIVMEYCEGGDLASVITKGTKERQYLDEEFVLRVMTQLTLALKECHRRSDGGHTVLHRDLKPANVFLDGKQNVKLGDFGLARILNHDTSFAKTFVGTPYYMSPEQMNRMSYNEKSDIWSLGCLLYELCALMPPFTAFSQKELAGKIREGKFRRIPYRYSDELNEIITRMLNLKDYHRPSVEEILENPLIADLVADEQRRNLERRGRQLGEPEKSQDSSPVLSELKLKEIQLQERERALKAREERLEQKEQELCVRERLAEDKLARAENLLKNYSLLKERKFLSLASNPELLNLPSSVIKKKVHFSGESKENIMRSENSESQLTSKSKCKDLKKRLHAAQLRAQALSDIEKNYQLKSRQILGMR
# [33] = target: PIK3CA (human) (UniProt P42336)
# [34] = target: PIK3CB (human) (UniProt P42338)
# [35] = target: PIM1 (human) (UniProt P11309)
# PIM1 (human), sequence (P11309 whole entry, looked up): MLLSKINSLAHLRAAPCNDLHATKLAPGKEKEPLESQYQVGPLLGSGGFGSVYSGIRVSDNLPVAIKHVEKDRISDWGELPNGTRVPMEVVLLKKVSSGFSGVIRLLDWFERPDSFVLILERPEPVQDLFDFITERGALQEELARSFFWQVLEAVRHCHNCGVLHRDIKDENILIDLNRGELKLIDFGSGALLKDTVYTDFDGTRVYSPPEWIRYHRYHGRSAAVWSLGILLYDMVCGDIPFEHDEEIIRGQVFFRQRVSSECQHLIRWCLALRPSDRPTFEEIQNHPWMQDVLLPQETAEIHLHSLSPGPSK
# [36] = target: PRKCH (human) (UniProt P24723)
# [37] = target: PTK2B (human) (UniProt Q14289)
# [38] = test system: RET (human), P07949 [V804M]
# [39] = target: STK39 (human) (UniProt Q9UEW8)
# [40] = target: TNK1 (human) (UniProt Q13470)
# TNK1 (human), sequence (Q13470 whole entry, looked up): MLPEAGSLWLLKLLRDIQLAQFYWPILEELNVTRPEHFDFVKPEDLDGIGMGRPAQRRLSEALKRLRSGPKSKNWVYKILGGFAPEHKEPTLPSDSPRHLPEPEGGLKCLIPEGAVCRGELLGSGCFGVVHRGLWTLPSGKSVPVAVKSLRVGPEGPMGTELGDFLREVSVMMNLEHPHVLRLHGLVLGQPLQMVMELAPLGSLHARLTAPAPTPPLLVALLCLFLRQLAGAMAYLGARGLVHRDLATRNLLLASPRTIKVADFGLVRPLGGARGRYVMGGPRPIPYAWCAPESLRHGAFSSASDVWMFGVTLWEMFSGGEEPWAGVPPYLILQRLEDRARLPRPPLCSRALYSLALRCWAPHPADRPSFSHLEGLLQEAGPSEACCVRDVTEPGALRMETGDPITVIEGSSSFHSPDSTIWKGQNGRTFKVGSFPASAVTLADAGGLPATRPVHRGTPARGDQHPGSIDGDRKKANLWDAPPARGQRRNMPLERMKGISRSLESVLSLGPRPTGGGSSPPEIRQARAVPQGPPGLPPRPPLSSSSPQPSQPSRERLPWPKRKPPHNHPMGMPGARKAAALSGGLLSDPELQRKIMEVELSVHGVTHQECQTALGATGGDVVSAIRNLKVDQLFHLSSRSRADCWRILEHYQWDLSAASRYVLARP
# [41] = target: TTK (human) (UniProt P33981)
# [42] = target: YES1 (human) (UniProt P07947)
# YES1 (human), sequence (P07947 whole entry, looked up): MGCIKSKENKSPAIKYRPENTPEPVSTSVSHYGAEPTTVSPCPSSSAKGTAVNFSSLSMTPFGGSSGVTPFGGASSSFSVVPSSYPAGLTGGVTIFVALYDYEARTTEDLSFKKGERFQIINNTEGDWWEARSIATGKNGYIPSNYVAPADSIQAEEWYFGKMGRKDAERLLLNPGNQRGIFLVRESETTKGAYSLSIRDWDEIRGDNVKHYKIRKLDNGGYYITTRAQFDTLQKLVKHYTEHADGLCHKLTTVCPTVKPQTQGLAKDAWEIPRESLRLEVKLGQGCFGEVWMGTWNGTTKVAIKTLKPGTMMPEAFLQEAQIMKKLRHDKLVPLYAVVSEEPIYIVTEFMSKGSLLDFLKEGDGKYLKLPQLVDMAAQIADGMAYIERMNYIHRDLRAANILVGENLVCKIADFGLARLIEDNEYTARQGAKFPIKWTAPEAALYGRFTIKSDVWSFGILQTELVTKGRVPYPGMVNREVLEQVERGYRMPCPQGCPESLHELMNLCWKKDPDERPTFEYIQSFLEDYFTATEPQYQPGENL
# ABL2 (human), sequence (P42684 whole entry, looked up): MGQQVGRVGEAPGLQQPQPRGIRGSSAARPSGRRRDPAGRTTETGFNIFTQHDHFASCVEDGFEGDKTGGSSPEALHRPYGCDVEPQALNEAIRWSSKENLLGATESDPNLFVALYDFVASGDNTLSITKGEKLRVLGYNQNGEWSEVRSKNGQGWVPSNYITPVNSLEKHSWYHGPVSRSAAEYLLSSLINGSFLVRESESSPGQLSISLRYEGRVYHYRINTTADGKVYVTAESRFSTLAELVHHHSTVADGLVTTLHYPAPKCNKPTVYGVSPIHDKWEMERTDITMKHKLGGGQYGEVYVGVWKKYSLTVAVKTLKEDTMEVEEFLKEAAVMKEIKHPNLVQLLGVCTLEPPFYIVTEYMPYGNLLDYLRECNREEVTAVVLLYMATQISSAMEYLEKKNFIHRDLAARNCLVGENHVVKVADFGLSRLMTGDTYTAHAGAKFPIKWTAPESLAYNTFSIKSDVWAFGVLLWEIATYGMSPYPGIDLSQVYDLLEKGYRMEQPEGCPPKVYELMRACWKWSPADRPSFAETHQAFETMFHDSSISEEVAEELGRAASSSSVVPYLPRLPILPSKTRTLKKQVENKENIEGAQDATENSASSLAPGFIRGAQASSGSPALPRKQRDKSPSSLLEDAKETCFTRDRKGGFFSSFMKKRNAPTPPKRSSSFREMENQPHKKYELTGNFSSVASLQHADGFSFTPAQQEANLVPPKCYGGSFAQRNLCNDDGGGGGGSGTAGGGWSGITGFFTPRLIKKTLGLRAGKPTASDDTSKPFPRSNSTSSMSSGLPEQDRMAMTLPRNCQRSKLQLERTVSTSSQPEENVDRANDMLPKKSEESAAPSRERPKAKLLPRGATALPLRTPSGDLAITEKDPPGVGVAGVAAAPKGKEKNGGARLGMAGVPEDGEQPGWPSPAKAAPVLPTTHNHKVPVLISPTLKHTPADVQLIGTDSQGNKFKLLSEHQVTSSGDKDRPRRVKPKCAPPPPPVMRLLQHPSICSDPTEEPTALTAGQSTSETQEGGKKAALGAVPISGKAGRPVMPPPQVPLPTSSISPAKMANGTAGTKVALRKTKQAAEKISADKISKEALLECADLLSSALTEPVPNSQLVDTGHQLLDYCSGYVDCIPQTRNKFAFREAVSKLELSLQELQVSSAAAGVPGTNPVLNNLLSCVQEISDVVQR
# ACVR1B (human), sequence (P36896 whole entry, looked up): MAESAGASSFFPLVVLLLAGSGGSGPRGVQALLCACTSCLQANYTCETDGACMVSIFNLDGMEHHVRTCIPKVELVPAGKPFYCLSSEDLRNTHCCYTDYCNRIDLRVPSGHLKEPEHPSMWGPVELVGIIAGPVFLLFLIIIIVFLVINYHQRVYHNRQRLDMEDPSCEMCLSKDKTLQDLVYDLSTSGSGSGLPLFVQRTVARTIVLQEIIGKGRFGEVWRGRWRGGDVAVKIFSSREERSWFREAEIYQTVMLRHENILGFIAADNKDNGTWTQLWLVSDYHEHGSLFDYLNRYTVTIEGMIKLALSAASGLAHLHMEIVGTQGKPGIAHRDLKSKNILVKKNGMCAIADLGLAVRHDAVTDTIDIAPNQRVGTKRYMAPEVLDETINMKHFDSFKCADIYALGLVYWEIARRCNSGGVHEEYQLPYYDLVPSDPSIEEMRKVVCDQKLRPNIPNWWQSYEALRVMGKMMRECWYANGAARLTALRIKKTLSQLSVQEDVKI
compound,measurement,setting,value
Cc1cnc(-c2cnc(NCCNc3ccc(C#N)cn3)nc2-c2ccc(Cl)cc2Cl)[nH]1,"kinase still bound, per cent of control",[1],100%
same,"kinase still bound, per cent of control",[2],100%
same,"kinase still bound, per cent of control",[3],100%
same,"kinase still bound, per cent of control",[4],100%
same,"kinase still bound, per cent of control",[5],100%
same,"kinase still bound, per cent of control",[6],100%
same,"kinase still bound, per cent of control",[7],64%
same,"kinase still bound, per cent of control",[8],100%
same,"kinase still bound, per cent of control",[9],40%
same,"kinase still bound, per cent of control",[10],68%
same,"kinase still bound, per cent of control",[11],100%
same,"kinase still bound, per cent of control",[12],100%
same,"kinase still bound, per cent of control",[13],96%
same,"kinase still bound, per cent of control",[14],100%
same,"kinase still bound, per cent of control",[15],98%
same,"kinase still bound, per cent of control",[16],74%
same,"kinase still bound, per cent of control",[17],79%
same,"kinase still bound, per cent of control",[18],100%
same,"kinase still bound, per cent of control",[19],87%
same,"kinase still bound, per cent of control",[20],100%
same,"kinase still bound, per cent of control",[21],86%
same,"kinase still bound, per cent of control",[22],100%
same,"kinase still bound, per cent of control",[23],80%
same,"kinase still bound, per cent of control",[24],80%
same,"kinase still bound, per cent of control",[25],100%
same,"kinase still bound, per cent of control",[26],94%
same,"kinase still bound, per cent of control",[27],91%
same,"kinase still bound, per cent of control",[28],100%
same,"kinase still bound, per cent of control",[29],79%
same,"kinase still bound, per cent of control",[30],40%
same,"kinase still bound, per cent of control",[31],75%
same,"kinase still bound, per cent of control",[32],72%
same,"kinase still bound, per cent of control",[33],100%
same,"kinase still bound, per cent of control",[34],100%
same,"kinase still bound, per cent of control",[35],94%
same,"kinase still bound, per cent of control",[36],100%
same,"kinase still bound, per cent of control",[37],100%
same,"kinase still bound, per cent of control",[38],90%
same,"kinase still bound, per cent of control",[39],67%
same,"kinase still bound, per cent of control",[40],80%
same,"kinase still bound, per cent of control",[41],86%
same,"kinase still bound, per cent of control",[42],100%
Cn1cc(C2=C(c3ccc(Cl)cc3Cl)C(=O)NC2=O)c2ccccc21,"kinase still bound, per cent of control",[1],93%
same,"kinase still bound, per cent of control",[2],89%
same,"kinase still bound, per cent of control",[3],79%
same,"kinase still bound, per cent of control",[4],100%
same,"kinase still bound, per cent of control",[5],68%
same,"kinase still bound, per cent of control",[6],100%
same,"kinase still bound, per cent of control",[7],43%
same,"kinase still bound, per cent of control",[8],84%
same,"kinase still bound, per cent of control",[9],0.45%
same,"kinase still bound, per cent of control",[10],83%
same,"kinase still bound, per cent of control",[11],95%
same,"kinase still bound, per cent of control",[12],100%
same,"kinase still bound, per cent of control",[13],91%
same,"kinase still bound, per cent of control",[14],100%
same,"kinase still bound, per cent of control",[15],100%
same,"kinase still bound, per cent of control",[16],62%
same,"kinase still bound, per cent of control",[17],74%
same,"kinase still bound, per cent of control",[18],100%
same,"kinase still bound, per cent of control",[19],82%
same,"kinase still bound, per cent of control",[20],96%
same,"kinase still bound, per cent of control",[21],83%
same,"kinase still bound, per cent of control",[22],96%
same,"kinase still bound, per cent of control",[23],20%
same,"kinase still bound, per cent of control",[24],84%
same,"kinase still bound, per cent of control",[25],100%
same,"kinase still bound, per cent of control",[26],77%
same,"kinase still bound, per cent of control",[27],96%
same,"kinase still bound, per cent of control",[28],78%
same,"kinase still bound, per cent of control",[29],75%
same,"kinase still bound, per cent of control",[30],100%
same,"kinase still bound, per cent of control",[31],60%
same,"kinase still bound, per cent of control",[32],85%
same,"kinase still bound, per cent of control",[33],92%
same,"kinase still bound, per cent of control",[34],85%
same,"kinase still bound, per cent of control",[35],22%
same,"kinase still bound, per cent of control",[36],79%
same,"kinase still bound, per cent of control",[37],94%
same,"kinase still bound, per cent of control",[38],83%
same,"kinase still bound, per cent of control",[39],100%
same,"kinase still bound, per cent of control",[40],88%
same,"kinase still bound, per cent of control",[41],83%
same,"kinase still bound, per cent of control",[42],100%
